Measured values as given in ChEMBL document CHEMBL2073861, “Molecular identification of a novel carnitine transporter specific to human testis. Insights into the mechanism of carnitine recognition” (J Biol Chem, 2002).

Assays:
[1] = biological target: Solute carrier family 22 member 16 (Homo sapiens) (UniProt Q86VW1); assay: TP_TRANSPORTER: inhibition of carnitine uptake by Carnitine-related compound-7A at 20uM in Xenopus laevis oocytes; design: scale not given: the % may be the effect or the level left; conditions: Oocyte
[2] = biological target: T1, Organic cation/carnitine transporter 2 (Homo sapiens, UniProt O76082); assay: TP_TRANSPORTER: inhibition of carnitine transport by Carnitine-related compound-7A at 20uM in Xenopus laevis oocytes; assay type: functional, cell-based, Oocyte; design: scale not given: the % may be the effect or the level left; conditions: probe carnitine, read-out: Activity
T1 sequence (O76082 whole entry): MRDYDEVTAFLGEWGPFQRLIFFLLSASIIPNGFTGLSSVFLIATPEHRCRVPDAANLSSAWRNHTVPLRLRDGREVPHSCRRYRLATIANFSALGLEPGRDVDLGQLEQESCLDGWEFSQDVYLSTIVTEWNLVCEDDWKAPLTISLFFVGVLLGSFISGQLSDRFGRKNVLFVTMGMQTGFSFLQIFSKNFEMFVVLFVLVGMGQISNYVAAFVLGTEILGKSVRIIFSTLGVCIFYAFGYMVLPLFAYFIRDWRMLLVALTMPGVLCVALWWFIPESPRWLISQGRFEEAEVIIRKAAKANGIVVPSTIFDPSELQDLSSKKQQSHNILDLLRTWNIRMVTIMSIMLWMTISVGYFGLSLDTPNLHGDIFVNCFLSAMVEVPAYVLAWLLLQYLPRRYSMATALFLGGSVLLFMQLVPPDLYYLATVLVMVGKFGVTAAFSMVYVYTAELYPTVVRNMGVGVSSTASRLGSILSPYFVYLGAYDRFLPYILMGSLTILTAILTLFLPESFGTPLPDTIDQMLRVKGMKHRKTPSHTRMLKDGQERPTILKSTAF

[3] = biological target: T1, Organic cation/carnitine transporter 2; assay: TP_TRANSPORTER: inhibition of carnitine uptake by Carnitine-related compound-2A at 20uM in Xenopus laevis oocytes; assay type: functional, cell-based, Oocyte; design: scale not given: the % may be the effect or the level left; conditions: probe carnitine, read-out: Activity
[4] = biological target: Solute carrier family 22 member 16 (Homo sapiens) (UniProt Q86VW1); assay: TP_TRANSPORTER: inhibition of carnitine uptake by Carnitine-related compound-2A at 20uM in Xenopus laevis oocytes; design: scale not given: the % may be the effect or the level left; conditions: Oocyte
[5] = biological target: Solute carrier family 22 member 16 (Homo sapiens) (UniProt Q86VW1); assay: TP_TRANSPORTER: inhibition of carnitine uptake by Carnitine-related compound-11A at 20uM in Xenopus laevis oocytes; design: scale not given: the % may be the effect or the level left; conditions: Oocyte
[6] = biological target: T1, Organic cation/carnitine transporter 2; assay: TP_TRANSPORTER: inhibition of carnitine uptake by Carnitine-related compound-5A at 20uM in Xenopus laevis oocytes; assay type: functional, cell-based, Oocyte; design: scale not given: the % may be the effect or the level left; conditions: probe carnitine, read-out: Activity
[7] = biological target: Solute carrier family 22 member 16 (Homo sapiens) (UniProt Q86VW1); assay: TP_TRANSPORTER: inhibition of carnitine uptake by Carnitine-related compound-5A at 20uM in Xenopus laevis oocytes; design: scale not given: the % may be the effect or the level left; conditions: Oocyte
[8] = biological target: Solute carrier family 22 member 16 (Homo sapiens) (UniProt Q86VW1); assay: TP_TRANSPORTER: inhibition of carnitine uptake by Carnitine-related compound-13 at 20uM in Xenopus laevis oocytes; design: scale not given: the % may be the effect or the level left; conditions: Oocyte
[9] = biological target: T1, Organic cation/carnitine transporter 2; assay: TP_TRANSPORTER: inhibition of carnitine uptake by Carnitine-related compound-13 at 20uM in Xenopus laevis oocytes; assay type: functional, cell-based, Oocyte; design: scale not given: the % may be the effect or the level left; conditions: probe carnitine, read-out: Activity
[10] = biological target: T1, Organic cation/carnitine transporter 2; assay: TP_TRANSPORTER: inhibition of carnitine uptake by Carnitine-related compound-14 at 20uM in Xenopus laevis oocytes; assay type: functional, cell-based, Oocyte; design: scale not given: the % may be the effect or the level left; conditions: probe carnitine, read-out: Activity
[11] = biological target: T1, Organic cation/carnitine transporter 2; assay: TP_TRANSPORTER: inhibition of carnitine transport by Carnitine-related compound-3A at 20uM in Xenopus laevis oocytes; assay type: functional, cell-based, Oocyte; design: scale not given: the % may be the effect or the level left; conditions: probe carnitine, read-out: Activity
[12] = biological target: Solute carrier family 22 member 16 (Homo sapiens) (UniProt Q86VW1); assay: TP_TRANSPORTER: inhibition of carnitine uptake by Carnitine-related compound-3A at 20uM in Xenopus laevis oocytes; design: scale not given: the % may be the effect or the level left; conditions: Oocyte
[13] = biological target: Solute carrier family 22 member 16 (Homo sapiens) (UniProt Q86VW1); assay: TP_TRANSPORTER: inhibition of carnitine uptake by Carnitine-related compound-10A at 20uM in Xenopus laevis oocytes; design: scale not given: the % may be the effect or the level left; conditions: Oocyte
[14] = biological target: T1, Organic cation/carnitine transporter 2; assay: TP_TRANSPORTER: inhibition of carnitine uptake by Carnitine-related compound-10A at 20uM in Xenopus laevis oocytes; assay type: functional, cell-based, Oocyte; design: scale not given: the % may be the effect or the level left; conditions: probe carnitine, read-out: Activity
[15] = biological target: Solute carrier family 22 member 16 (Homo sapiens) (UniProt Q86VW1); assay: TP_TRANSPORTER: inhibition of carnitine uptake by Carnitine-related compound-17 at 20uM in Xenopus laevis oocytes; design: scale not given: the % may be the effect or the level left; conditions: Oocyte
[16] = biological target: Solute carrier family 22 member 16 (Homo sapiens) (UniProt Q86VW1); assay: TP_TRANSPORTER: inhibition of carnitine uptake by Carnitine-related compound-6A at 20uM in Xenopus laevis oocytes; design: scale not given: the % may be the effect or the level left; conditions: Oocyte
[17] = biological target: T2, Solute carrier family 22 member 16 (Homo sapiens, UniProt Q86VW1); assay: TP_TRANSPORTER: inhibition of carnitine transport by Acetyl-L-carnitine at 5uM in Xenopus laevis oocytes; assay type: functional, cell-based, Oocyte; design: scale not given: the % may be the effect or the level left; conditions: probe carnitine, read-out: Activity
T2 sequence (Q86VW1 whole entry): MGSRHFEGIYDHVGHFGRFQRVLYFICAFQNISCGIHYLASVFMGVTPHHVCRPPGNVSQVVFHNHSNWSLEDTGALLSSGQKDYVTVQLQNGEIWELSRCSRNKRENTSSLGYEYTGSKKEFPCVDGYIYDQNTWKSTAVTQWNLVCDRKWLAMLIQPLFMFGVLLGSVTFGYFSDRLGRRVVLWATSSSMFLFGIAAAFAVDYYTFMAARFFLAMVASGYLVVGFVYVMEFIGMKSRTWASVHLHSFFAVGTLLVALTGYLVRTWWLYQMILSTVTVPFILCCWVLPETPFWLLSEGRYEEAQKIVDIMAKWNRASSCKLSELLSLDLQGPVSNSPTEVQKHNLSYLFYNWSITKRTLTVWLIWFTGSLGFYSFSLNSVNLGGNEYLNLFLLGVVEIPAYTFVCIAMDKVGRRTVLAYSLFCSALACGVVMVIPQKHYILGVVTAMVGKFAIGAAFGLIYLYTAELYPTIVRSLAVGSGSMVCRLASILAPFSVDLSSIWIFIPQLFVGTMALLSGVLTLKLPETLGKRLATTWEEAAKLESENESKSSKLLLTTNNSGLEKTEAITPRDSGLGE

[18] = biological target: T1, Organic cation/carnitine transporter 2; assay: TP_TRANSPORTER: inhibition of carnitine transport by Carnitine-related compound-9A at 20uM in Xenopus laevis oocytes; assay type: functional, cell-based, Oocyte; design: scale not given: the % may be the effect or the level left; conditions: probe carnitine, read-out: Activity
[19] = biological target: Solute carrier family 22 member 16 (Homo sapiens) (UniProt Q86VW1); assay: TP_TRANSPORTER: inhibition of carnitine uptake by Carnitine-related compound-9A at 20uM in Xenopus laevis oocytes; design: scale not given: the % may be the effect or the level left; conditions: Oocyte
[20] = biological target: Solute carrier family 22 member 16 (Homo sapiens) (UniProt Q86VW1); assay: TP_TRANSPORTER: inhibition of carnitine uptake by Carnitine-related compound-12A at 20uM in Xenopus laevis oocytes; design: scale not given: the % may be the effect or the level left; conditions: Oocyte
[21] = biological target: T2, Solute carrier family 22 member 16; assay: TP_TRANSPORTER: inhibition of carnitine in Xenopus laevis oocytes; assay type: functional, cell-based, Oocyte
[22] = biological target: T1, Organic cation/carnitine transporter 2; assay: TP_TRANSPORTER: inhibition of carnitine transport by Carnitine-related compound-8A at 20uM in Xenopus laevis oocytes; assay type: functional, cell-based, Oocyte; design: scale not given: the % may be the effect or the level left; conditions: probe carnitine, read-out: Activity
[23] = biological target: Solute carrier family 22 member 16 (Homo sapiens) (UniProt Q86VW1); assay: TP_TRANSPORTER: inhibition of carnitine uptake by Carnitine-related compound-8A at 20uM in Xenopus laevis oocytes; design: scale not given: the % may be the effect or the level left; conditions: Oocyte
[24] = biological target: T2, Solute carrier family 22 member 16; assay: TP_TRANSPORTER: inhibition of carnitine transport by Octanoyl-carnitine at 5uM in Xenopus laevis oocytes; assay type: functional, cell-based; design: scale not given: the % may be the effect or the level left; conditions: oocyte
[25] = biological target: T1, Organic cation/carnitine transporter 2; assay: TP_TRANSPORTER: inhibition of carnitine uptake by Carnitine-related compound-4A at 20uM in Xenopus laevis oocytes; assay type: functional, cell-based; design: scale not given: the % may be the effect or the level left; conditions: oocyte
[26] = biological target: Solute carrier family 22 member 16 (Homo sapiens) (UniProt Q86VW1); assay: TP_TRANSPORTER: inhibition of carnitine uptake by Carnitine-related compound-4A at 20uM in Xenopus laevis oocytes; design: scale not given: the % may be the effect or the level left; conditions: Oocyte
[27] = biological target: Solute carrier family 22 member 16 (Homo sapiens) (UniProt Q86VW1); assay: TP_TRANSPORTER: inhibition of carnitine uptake by Carnitine-related compound-18 at 20uM in Xenopus laevis oocytes; design: scale not given: the % may be the effect or the level left; conditions: Oocyte
[28] = substrate: C[N+](C)(C)CC(O)CC(=O)[O-]; assay: TP_TRANSPORTER: uptake in Xenopus laevis oocytes; assay type: functional, cell-based, Oocyte

C[N+](C)(C)CCCCCC(=O)O
Activity [1]: 20%
activity at 20 µM [2]: 35%

C[N+](C)(C)CCCCC(=O)O
activity at 20 µM [3]: 40%
Activity [4]: 20%

CC[N+](C)(CC)CCCCCCC(=O)O
Activity [5]: 50%

CC[N+](CCCCC(=O)O)(C(C)C)C(C)C
activity at 20 µM [6]: 40%
Activity [7]: 20%

C[N+](C)(C)CC(O)CC(=O)[O-] (stereo not drawn) [CARNITINE]
Activity [8]: 20%
activity at 20 µM [9]: 40%

CC[N+](CC)(CC)CC(O)CC(=O)[O-] (stereo not drawn)
activity at 20 µM [10]: 70%

CC[N+](C)(CC)CCCCC(=O)O
activity at 20 µM [11]: 20%
Activity [12]: 20%

C[N+](C)(C)CCCCCCC(=O)O
Activity [13]: 40%
activity at 20 µM [14]: 50%

CC[N+](C)(CC)CC(O)CCC(=O)[O-] (stereo not drawn)
Activity [15]: 20%

CCC[N+](CCC)(CCC)CCCCC(=O)O
Activity [16]: 70%

CC(=O)O[C@H](CC(=O)[O-])C[N+](C)(C)C [ACETYLCARNITINE]
activity at 5 µM [17]: 70%

CC[N+](CC)(CC)CCCCCC(=O)O
activity at 20 µM [18]: 30%
Activity [19]: 20%

CC[N+](CC)(CC)CCCCCCC(=O)O
Activity [20]: 50%

C[N+](C)(C)C[C@@H](O)CC(=O)[O-] [D-CARNITINE]
Ki [21]: 30 µM

CC[N+](C)(CC)CCCCCC(=O)O
activity at 20 µM [22]: 20%
Activity [23]: 30%

CCCCCCCC(=O)OC(CC(=O)O)C[N+](C)(C)C.[Cl-] (stereo not drawn) [Octanoyl-carnitine]
Activity [24]: 70%

CC[N+](CC)(CC)CCCCC(=O)O.[Cl-]
Activity [25]: 50%
Activity [26]: 20%

CC[N+](CC)(CC)CC(O)CCC(=O)[O-] (stereo not drawn)
Activity [27]: 20%

B1: Solute carrier family 22 member 16 (Homo sapiens) (protein)
chain: T2 sequence (Q86VW1 whole entry)
Km [28]: 20 µM
